“And” between values parts separate entries of the source, which are not always exact repeats. Equal entries are not always repeated.
What was measured:
Assay type in all cases: in vivo, albino rats
[1] = test system: acetyl salicylic acid induced gastric lesions; assay: Acetyl salicylic acid (aspirin) induced gastric ulcer; parameters: Ulcer index Mean(SE): scale not given here; conditions: rats, 25 mg/kg per orally daily for five days, aspirin 200 mg/kg; for inhibition at 25 mg/kg: Rattus norvegicus, po, 120 h
Method: Stress induced gastric ulceration The commercially available drug ranitidine (sigma), Omeprazole (sigma) and sucralfate (Merck) were used as reference standard in experimental models. The Tween-80 (SD fine chemicals) was used as vehicle for the administration of the drug, which is used as control. Antiulcer activity of the compounds under taken was studied. The animals were divided into 20 groups of 6 animals each. Group 1 received the vehicle Tween 80 (1%, 1 ml) which served as the control. Group 2 received ranitidine at a dose of 50-mg/kg body weight, which served as standard for comparison. Group 3 to 20 at a dose of 25 mg/kg body weight. Rats were administered per orally with a daily dose of the compounds and the drug ranitidine for a period of five days and then fasted for 24 hours. The […] acetyl salicylic acid (aspirin) at a dose of 200 mg/kg body weight was administered as a suspension in tween-80 (1%), 30 min after the drug administration each day. All drugs were administered orally on the 6th day after the last administration of the drugs and the ulcer inducing agent aspirin, the rats were killed by cervical dislocation and their stomach were opened along the greater curvature and washed with luke warm saline and examined under a dissecting microscope. The ulcer index was calculated for each stomach. […] The antiulcer activity of the compounds was studied. The animals were divided into 19 groups of 6 animals each. Group 1 received the vehicle Tween 80 (1%, 1 ml) which served as the control. Group 2 received ranitidine at a dose of 50-mg/kg-body weight, which served as standard for comparison. […] Rats were administered per orally with a daily dose of the compounds and the drug ranitidine to respective groups for a period of five days and then fasted for 24 hours. The […] acetyl salicylic acid (aspirin) at a dose of 200 mg/kg body weight was administered as a suspension in tween-80 (1%), 30 min after the drug administration each day. All drugs were administered orally on ht […] day after the last administration of the drugs and the ulcer inducing agent aspirin, the rats were killed by cervical dislocation and their stomach were opened along the greater curvature and washed with luke warm saline and examined under a dissecting microscope.

[2] = test system: gastric ulceration in cold restraint rats; assay: Cold restraint (stress) induced ulcers; parameters: Ulcer index Mean(SE): scale not given here; conditions: for inhibition at 25 mg/kg: po; for inhibition at 25 mg/kg / Ulcer index Mean(SE): rats, 4° C. for 2 hours
From the text: (§1) The compounds taken under study for antigastric ulcer screening by four different models were selected using experimental albino rats: • 1. Aspirin induced gastric ulceration • 2. Pylorus ligated gastric ulceration • 3. Ethanol induced gastric ulceration • 4. Stress induced gastric ulceration
(§2) The commercially available drug ranitidine (sigma), Omeprazole (sigma) and sucralfate (Merck) were used as reference standard in experimental models. The Tween-80 (SD fine chemicals) was used as vehicle for the administration of the drug, which is used as control.
(§3) The antiulcer activity of the compounds was studied. The animals were divided into 21 groups of 7 animals each. Group 1 received the vehicle Tween 80 (1%, 1 ml) which served as the control. Group 2 received ranitidine at a dose of 50-mg/kg body weight, which served as standard for comparison. Group 3 to 21 at a dose of 25 mg/kg body weight. Animals were deprived of food 48 hours before the experiment. The water was allowed for free access. Rats were administered per orally with compounds and the drug ranitidine. The water was removed 1 hour before restraint and exposed to a temperature of 4° C. for 2 hours. Two hours after stress, the animals were sacrificed. The stressed animals were opened along the greater curvature and the severity of gastric ulcer was assessed in terms of mean ulcer index. 2.
as §3, with “8” for “21”, “6” for “7”, “50, 25, 15, 10 and 5” for “25”, “weight respectively.” for “weight.”, “index.” for “index. 2.”

[3] = test system: ethanol induced gastric ulcers; assay: Ethanol induced ulcers; conditions: rats, ethanol challenge; for Acidity Total mEg / Gastric content / pH: 4 hours after pylorus ligation
Method: Stress induced gastric ulceration The commercially available drug ranitidine (sigma), Omeprazole (sigma) and sucralfate (Merck) were used as reference standard in experimental models. The Tween-80 (SD fine chemicals) was used as vehicle for the administration of the drug, which is used as control. The animals were divided into 22 groups of 6 animals each. Animals were deprived of food for 48 hours but had free access to water. Group 1 received the vehicle Tween 80 (1%, 1 ml) which served as the control. Group 2 received ranitidine at a dose of 50-mg/kg-body weight, which served as standard for comparison. Group 3 to received Omeprazole at a dose of 30-mg/kg body weight, which served as standard for comparison. Group 4 received sucralfate at a dose of 400-mg/kg body weight, which served as standard for comparison. Group 5 to 22 received at a dose of 25 mg/kg body weight. Lesions were induced 1 hour after ethanol challenge animals. The stomach was ligated at the pylorus under ether anesthesia. 4 hours after pylorus ligation, the animals were sacrificed and the contents drained and centrifuges at 5000 rpm for 10 minutes. Aliquots of supernatant were used for determination of total acid by titrating with 0.01N NaOH using topfers reagent and phenolphthalein indicators. […] The animals were divided into 9 groups of 6 animals each. Animals were deprived of food for 48 hours but had free access to water. Group 1 received the vehicle Tween 80 (1%, 1 ml) which served as the control. Group 2 received ranitidine at a dose of 50-mg/kg-body weight, which served as standard for comparison. Group 3 to received Omeprazole at a dose of 30-mg/kg body weight, which served as standard for comparison. Group 4 received sucralfate at a dose of 400-mg/kg body weight, which served as standard for comparison. […] Lesions were induced 1 hour after ethanol challenge animals. The stomach was ligated at the pylorus under ether anesthesia. 4 hours after pylorus ligation, the animals were sacrificed and the contents drained and centrifuges at 5000 rpm for 10 minutes. Aliquots of supernatant were used for determination of total acid by titrating with 0.01N NaOH using topfers reagent and phenolphthalein indicators.

Pylorus ligated rats = assay: Pylorus ligated ulcers; conditions: 25 mg/kg, 4 hours after pylorus ligation; for inhibition at 25 mg/kg: Rattus norvegicus
From the text: as §1, §2
The animals were divided into 19 groups of 6 animals each. Animals were deprived of food for 48 hours but had free access to water. Group 1 received the vehicle Tween 80 (1%, 1 ml) which served as the control. Group 2 received ranitidine at a dose of 50-mg/kg-body weight, which served as standard for comparison. […] After one hour of administration of drug the stomach was ligated at the pylorus under ether anesthesia. 4 hours after pylorus ligation, the animals were sacrificed and the contents drained and centrifuges at 5000 rpm for 10 minutes. Aliquots of supernatant were used for determination of total acid by titrating with 0.01N NaOH using topfers reagent and phenolphthalein indicators. 4.
The animals were divided into 7 groups of 6 animals each. Animals were deprived of food for 48 hours but had free access to water. Group 1 received the vehicle Tween 80 (1%, 1 ml) which served as the control. Group 2 received ranitidine at a dose of 50-mg/kg-body weight, which served as standard for comparison. Group 3 to 7 received at a dose of 50, 25, 15, 10 and 5 mg/kg body weight respectively. After one hour of administration of drug the stomach was ligated at the pylorus under ether anesthesia. 4 hours after pylorus ligation, the animals were sacrificed and the contents drained and centrifuges at 5000 rpm for 10 minutes. Aliquots of supernatant were used for determination of total acid by titrating with 0.01N NaOH using topfers reagent and phenolphthalein indicators.

[4] = Rattus norvegicus, 25 mg/kg per orally

Compound | inhibition at 25 mg/kg [1] [%] | Ulcer index Mean(SE) [1] | inhibition at 25 mg/kg [2, 4] [%] | Ulcer index Mean(SE) ([2]; 25 mg/kg per orally) | inhibition at 25 mg/kg ([3]; Rattus norvegicus, 25 mg/kg) [%] | Ulcer index Mean(SE) ([3]; 25 mg/kg) | Acidity Total mEg ([3]; 25 mg/kg) | Gastric content ([3]; 25 mg/kg) | pH ([3]; 25 mg/kg) | Acidity Total mEg (Pylorus ligated rats) | Gastric content (Pylorus ligated rats) | Ulcer index Mean(SE) (Pylorus ligated rats) | pH (Pylorus ligated rats) | inhibition at 25 mg/kg (Pylorus ligated rats) [%] | further results
O=c1cc(-c2ccccc2)oc2cc(O)c(O)c(O)c12 [Baicalein, 5,6,7-trihydroxy-2-phenyl-chromen-4-one] | 9.51 | 40.83 | 3.52 | 29.28 | 20 | 43.33 (±3.33) | 45.21 (±3.10) mEg | 3.5 (±0.20) | 3.33 (±0.10) | 49.21 (±2.20) m Eg | 2.00 (±0.22) | 40.66 (±5.50) | 3.01 (±0.30) | 18.9 | 
O=c1cc(-c2ccccc2)oc2cc(OC3OC(CO)C(O)C(O)C3O)cc(O)c12 (stereo not shown) [CG, 5-Hydroxy-2-phenyl-7-(3,4,5-trihydroxy-6-hydroxymethyl-tetrahydro-pyran-2-yloxy)-chromen-4-one] | 52 | 21.66 | 47.7 | 21.00 | 52.5 | 31.66 (±4.41) | 20.01 (±4.41) mEg | 5.90 (±0.49) | 5.90 (±0.49) | 44.33 (±2.33) m Eg | 1.50 (±0.28) | 24.93 (±1.66) | 3.50 (±0.28) | 50.2 | 
O=c1cc(-c2ccccc2)oc2cc(OCCCN3CCOCC3)cc(O)c12 [CHM-2, 5-Hydroxy-7-(3-morpholin-4-yl-propoxy)-2-phenyl chromen-4-one] | 55.6 | 19.99 | 35.1 | 26.42 | 25 | 40.11 (±3.65) | 38.28 (±2.24) mEg | 2.8 (±0.72) | 4.00 (±0.18) | 41.48 (±3.20) m Eg | 1.88 (±0.62) | 25.82 (±2.00) | 3.79 (±0.20) | 48.5 | 
O=c1cc(-c2ccccc2)oc2cc(OCCCCN3CCOCC3)cc(O)c12 [CHM-3, 5-Hydroxy-7-(4-morpholin-4-yl-butoxy)-2-phenyl chromen-4-one] | 51.7 | 21.77 | 52.6 | 19.28 | 36.2 | 42.50 (±3.81) | 37.10 (±0.60) mEg | 3.8 (±0.30) | 4.16 (±0.12) | 44.10 (±2.20) m Eg | 2.24 (±0.22) | 27.46 (±3.00) | 3.41 (±0.16) | 45.2 | 
CN1C(=O)CN=C(c2ccccc2)c2cc(Cl)ccc21 [Diazepam, reference compound] |  |  |  |  |  |  |  |  |  |  |  |  |  |  | inhibition at 1 mg/kg ([2]; Rattus norvegicus, 2 h): 75.4%; Ulcer index Mean(SE) ([2]; 1 mg/kg): 10.00
COc1ccc2[nH]c([S+]([O-])Cc3ncc(C)c(OC)c3C)nc2c1 (stereo not shown) [Omeprazole, reference compound] |  |  |  |  |  |  |  |  |  |  |  |  |  |  | inhibition at 30 mg/kg ([3]; Rattus norvegicus, 30 mg/kg): 67.5%; Ulcer index Mean(SE) ([3]; 30 mg/kg): 23.33 (±2.21); Gastric content ([3]; 30 mg/kg): 3.5 (±0.68); pH ([3]; 30 mg/kg): 4.65 (±0.19)
sucralfate [reference compound] |  |  |  |  |  |  |  |  |  |  |  |  |  |  | Inhibition % ([3]; 400 mg/kg): 87.50%; Ulcer index Mean(SE) ([3]; 400 mg/kg): 08.33 (±2.23); Acidity Total mEg ([3]; 400 mg/kg): 58.00 (±2.30) mEg; Gastric content ([3]; 400 mg/kg): 3.01 (±0.48) and 3.0 (±0.48); pH ([3]; 400 mg/kg): 3.00 (±0.19)

Source: patent US7855200B2, “Method for treatment of gastric ulcers and ulcers induced by aspirin” (Council of Scientific and Industrial Research, priority 2006, dated 2010)
